The values that follow come from patent publication US8399498B2, “Animal ectoparasite-controlling agent” (Sumitomo Chemical Company, Limited, priority 2010, dated 2013).

Holding throughout (assay type): in vivo
For assay [1], the system named is Haemaphysalis longicornis. As to the kind of experiment: Dropping application against dog-infested ticks. The note with it: dog (beagle), dropping application on skin of neck and back, 20 mg/kg. The method, then:
The previous day before dropping application, 100 test ticks (Haemaphysalis longicornis, young ticks) were deposited on a dog (beagle). Before the dropping application, infested ticks were counted.
Each (1.5 g) of the present hydrazide compound (1) and Comparative compound (52) was dissolved in diethylene glycol monoethyl ether (6.0 g) to prepare a test solution. Said test solution was directly dropped on the skin of the neck and back of the dog while pushing aside fur thereon at a rate of 0.1 ml per 1 kg of the dog's body weight (dose amount: 20 mg/kg). This is referred to as a test group. On the other hand, diethylene glycol monoethyl ether alone was applied dropwise to a placebo group.
Two (2) days after the application, the number of living ticks, which were infesting the dogs, was examined. When the examination was completed, all infested ticks were removed from the dogs.
The infestation rate and control rate were calculated by the following formulae:
Method of calculating infestation rate and control rate at the initial stage (2 days) after the application: Infestation rate (%) at X days after application=(number of living ticks at X days/number of living ticks before application)×100 Control rate (%) at X days after application=(infestation rate of test group before application−infestation rate of test group at X days)/infestation rate of test group before application×100 […]

For assay [2], the system named is Haemaphysalis longicornis. Briefly: Dropping application against mouse-infested ticks. The note with it: 0.1% w/v solution 200 μL dropwise on whole body surface, 2 days after application. The method, then:
The previous day before dropping application, 30 test ticks (Haemaphysalis longicornis, young ticks) were deposited on a mouse. Before the dropping application, uninfested ticks were removed.
The present hydrazide compound (1) (5 mg) was dissolved in a mixture (5 mL) of propylene carbonate and diethylene glycol monoethyl ether in equal amounts to prepare a 0.1% w/v solution. Said solution (200 μL) was applied dropwise to the whole body surface of a mouse with a pipette. To a control group, the mixture (200 μL) alone was applied. Each application was repeated 3 times per group.
Two (2) days after the application, the number of dead ticks was examined and the mortality was calculated by the following formula: Mortality (%)=100×(number of dead ticks/infested ticks before dropping application)

In assay [3] the test system is Haemaphysalis longicornis. Briefly: Oral administration against mouse-infested ticks. The note with it: test solution 20 mg/10 mL at 10 mL per 1 kg body weight, 2 days after administration. The method, then: The previous day before oral administration, 30 test ticks (Haemaphysalis longicornis, young ticks) were deposited on a mouse. Before the oral administration, uninfested ticks were removed.
The present hydrazide compound (1) (20 mg) was dissolved in dimethylformamide (680 mg), and thereto a corn oil was added to prepare a test solution (10 mL). Said test solution was orally administered to the mouse at the rate of 10 mL per 1 kg of the body weight of the mouse with a gastric sonde. To a control group, a 7% dimethylformamide/corn oil solution alone was orally administered. Each administration was repeated 3 times per group.
Two (2) days after the administration, the number of dead ticks was examined and the mortality was calculated by the following formula: Mortality (%)=100×(number of dead ticks/infested ticks before oral administration)

Where only a bound is given, the exact number is not on record here.

Take `CC(=O)NNc1cc(C2=NOC(c3cc(Cl)cc(Cl)c3)(C(F)(F)F)C2)ccc1Cl` (stereo not shown) [Comparative compound (52), N′-{5-[5-(3,5-dichlorophenyl)-5-trifluoromethyl-4,5-dihydroisoxazol-3-yl]-2-chlorophenyl}acetohydrazide, reference compound]: the “Tick control rates (%) at 2 days after the application” value in assay [1] amounted to 44%.

For `COCC(=O)NNc1cc(C2=NOC(c3cc(Cl)cc(Cl)c3)(C(F)(F)F)C2)ccc1Cl` (stereo not shown) [Compound (1), N′-{2-chloro-5-[5-(3,5-dichlorophenyl)-5-trifluoromethyl-4,5-dihydroisoxazol-3-yl]phenyl}methoxyacetohydrazide], the Mortality is listed as ≥ 70% in assay [2] and ≥ 90% in assay [3]. In assay [1], the “Tick control rates (%) at 2 days after the application” value is given as 94%.
